pIC50: −log10 of the molar value.
Each compound was assayed on IL-8-induced neutrophil shape change in human whole blood (assay: Whole blood neutrophil shape change assay (Assay L)). Settings: 2 nM IL-8, neutrophil shape change by flow cytometry, read-out: Assay L WBSC IC50.
Format: cell-based
Description: Whole Blood Neutrophil Shape Change Assay (L)
A flow cytometry based method used to measure the inhibition of IL-8 (interleukin-8)-induced neutrophil shape change in human whole blood.
IL-8 was made up to 2 μM stocks in 0.1% bovine serum albumin/PBS and stored at −80° C. On the day IL-8 was diluted in PBS (phosphate buffered saline) 10 minutes before use. IL-8 was used at final concentration of 2 nM and a concentration range from […] to 200 nM for the donor dose response curve.
Assay fixative solution was prepared fresh each day from 10× concentrated CellFIX™ solution diluted 1:10 in sterile distilled water and then 1:4 with PBS. Assay fixative solution was kept on ice prior to use.
A 10× lysis buffer was prepared in advance by dissolving 20.75 g […] and 2.5 g KHCO3 in 250 ml sterile H2O. This 10× lysis buffer was filtered under sterile conditions and stored for up to two weeks at 4° C. On the day a 1× lysis solution was prepared with sterile distilled H2O and kept on ice prior to use.
The test compounds were prepared as 10 mM stock solutions in 100% DMSO and were stored at 4° C. Once in use for an assay 10 mM stock compounds were thawed and stored at RT protected from light. Compound dilutions were prepared fresh on the day. The first series of dilutions in 100% DMSO were done first thing in the morning. Only once blood had been collected and arrived in laboratory was the next set of dilutions into PBS carried out (1:10 PBS, 10% DMSO). This limited the exposure of diluted compound to plastic and made sure the exposure timing was consistent between assays. Compounds were added to the deep 96 well plates at 10× the final desired concentration (with addition of blood final [DMSO]=1%).
Table 3 illustrates the compound dilution series used in human whole blood neutrophil shape change assay.
On the day of running the assay, assay fixative buffer and 1× lysis solutions were prepared and stored on ice. Compound dilutions in 100% DMSO were prepared as described previously. Human whole blood was collected in K2 EDTA Vacutainers. Once blood was in the laboratory, compound dilutions into PBS were carried out as described previously and depicted in Table 1. 10 μl of 10× final compound concentration was added to appropriate wells of a deep 96-well plate except controls where 10 μl of 10% DMSO was added in place of compound, as outlined in the dilution series in Table 1. The outer wells of the deep well assay plate were filled with 1200 μl of sterile distilled H2O in an effort to limit edge effects (rows A1-H1, A1-A12, A12-H12). An IL-8 dose response was determined for each blood donor examined, to monitor the donor response to IL-8. At this step in assay preparation for the IL-8 dose response samples 10 μl of PBS was added to designated wells. In addition the assay window without DMSO was also assessed each day. For such samples at this step in assay preparation 10 μl of PBS was added in the place of 10% DMSO.
80 μl of whole blood was added to compound/10% DMSO/PBS and mixed once gently upon addition. Lids were placed on the 96 well plates and samples were incubated for 15 minutes at 37° C. in a water-bath.
Following the compound pre-incubation 10× final IL-8 was added to appropriate wells (10 μl of 20 nM working stock IL-8, final IL-8 concentration in blood=2 nM) and 10 μl of PBS was added to the un-stimulated controls. 10× final dose response range IL-8 was also added to designated wells (final concentration range on assay plate was 200 nM to 0.0005 nM, 1:5 serial dilution in PBS). The IL-8 and PBS were added to appropriate wells across all assay plates in the same sequence as the blood to compound addition. Once added to all assay plates, samples were mixed quickly once to ensure even distribution of IL-8. Samples were incubated for 5 minutes at 37° C. in a water-bath. Following the incubation sample plates were transferred to ice where 250 μl of chilled Assay Fixative Buffer was added promptly to all wells. […]

Question: `Cc1ccc(S(=O)(=O)NCCC(C)(C)O)cc1-c1cncc(-c2cn(CCN3CCOCC3)nc2C)n1` [Example 10, N-(3-Hydroxy-3-methyl-butyl)-4-methyl-3-{6-[3-methyl-1-(2-morpholin-4-yl-ethyl)-1H-pyrazol-4-yl]-pyrazin-2-yl}-benzenesulfonamide] was tested. Which pIC50 did it give?
Answer: 6.18

Question: How did the pIC50 turn out when `Cc1ccc(S(=O)(=O)NCC(C)(C)O)cc1-c1cncc(-c2cn(C)nc2C)n1` [Example 2, 3-[6-(1,3-Dimethyl-1H-pyrazol-4-yl)-pyrazin-2-yl]-N-(2-hydroxy-2-methyl-propyl)-4-methyl-benzenesulfonamide] was run?
Answer: 6.58

Question: How did the pIC50 turn out when `Cc1ncc(-c2cncc(-c3cc(S(=O)(=O)NCCCO)ccc3C)n2)s1` [Example 1, N-(3-Hydroxy-propyl)-4-methyl-3-[6-(2-methyl-thiazol-5-yl)-pyrazin-2-yl]-benzenesulfonamide] was run?
Answer: 5.88

Question: How did the pIC50 turn out when `Cc1ccc(S(=O)(=O)NCC2(C)COC2)cc1-c1cncc(-c2cn(C)nc2C)n1` [Example 4, Trans 3-[6-(1,3-Dimethyl-1H-pyrazol-4-yl)-pyrazin-2-yl]-4-methyl-N-(3-methyl-oxetan-3-ylmethyl)-benzenesulfonamide] was run?
Answer: 6.26

Question: How did the pIC50 turn out when `Cc1ccc(S(=O)(=O)NCCC(C)(C)O)cc1-c1cncc(-c2cnn(CCN3CCOCC3)c2)n1` [Example 9, N-(3-Hydroxy-3-methyl-butyl)-4-methyl-3-{6-[1-(2-morpholin-4-yl-ethyl)-1H-pyrazol-4-yl]-pyrazin-2-yl}-benzenesulfonamide] was run?
Answer: 6.22

Question: With `Cc1ccc(S(=O)(=O)NCC(C)(C)CO)cc1-c1cncc(-c2cn(C)nc2C)n1` [Example 8, 3-[6-(1,3-Dimethyl-1H-pyrazol-4-yl)-pyrazin-2-yl]-N-(3-hydroxy-2,2-dimethyl-propyl)-4-methyl-benzenesulfonamide] as the compound, how does the pIC50 read?
Answer: 6.20

Question: `Cc1ncc(-c2cncc(-c3cc(S(=O)(=O)N[C@H]4CC[C@H](O)CC4)ccc3C)n2)s1` [Example 5, Trans N-(4-Hydroxycyclohexyl)-4-methyl-3-(6-(2-methylthiazol-5-yl)pyrazin-2-yl)benzenesulfonamide] was tested. Which pIC50 did it give?
Answer: 6.75

Question: With `Cc1ccc(S(=O)(=O)N[C@H]2CC[C@H](O)CC2)cc1-c1cncc(-c2cccnc2)n1` [Example 11, Trans N-(4-Hydroxy-cyclohexyl)-4-methyl-3-(6-pyridin-3-yl-pyrazin-2-yl)-benzenesulfonamide] as the compound, how does the pIC50 read?
Answer: 6.12

Question: `Cc1ccc(S(=O)(=O)NCCC(C)(C)O)cc1-c1cncc(-c2cn(C)nc2C)n1` [Example 3, 3-[6-(1,3-Dimethyl-1H-pyrazol-4-yl)-pyrazin-2-yl]-N-(3-hydroxy-3-methyl-butyl)-4-methyl-benzenesulfonamide] was tested. Which pIC50 did it give?
Answer: 5.97
